Measurements from ChEMBL document CHEMBL6121052, “Design of ROS-Triggered Sesquiterpene Lactone SC Prodrugs as TrxR1 Covalent Inhibitors for the Treatment of Non-Small Cell Lung Cancer” (J Med Chem, 2025).

Assays:
NCI-H460 = experiment: Cytotoxicity against human NCI-H460 cells assessed as cell viability incubated for 48 hrs by MTT assay; type: functional, cell-based; settings: NCI-H460, 48 h
A549 = experiment: Cytotoxicity against human A549 cells assessed as cell viability incubated for 48 hrs by MTT assay; type: functional, cell-based; settings: A549, 48 h

SMILES | IC50 (NCI-H460) | IC50 (A549)
C/C1=C\[C@@H](OC(=O)C2CC2)[C@H]2[C@H](CC3=C[C@H](C1)OC3=O)OC(=O)[C@@H]2CSC1CCCCC1 | > 25 µM | > 25 µM
C/C1=C\[C@@H](OC(=O)c2ccccc2)[C@H]2[C@H](CC3=C[C@H](C1)OC3=O)OC(=O)[C@@H]2CSc1cccc(Br)c1 | > 25 µM | 3.66 µM
C/C1=C\[C@@H](OC(=O)C2CC2)[C@H]2[C@H](CC3=C[C@H](C1)OC3=O)OC(=O)[C@@H]2CSC(=S)NC1CCCC1 | > 25 µM | 2.63 µM
C/C1=C\[C@@H](OC(=O)c2ccccc2)[C@H]2[C@H](CC3=C[C@H](C1)OC3=O)OC(=O)[C@@H]2CSCC(C)C | > 25 µM | > 25 µM
C/C1=C\[C@@H](OC(=O)c2ccccc2)[C@H]2[C@H](CC3=C[C@H](C1)OC3=O)OC(=O)[C@@H]2CSCCCCCCSC[C@H]1C(=O)O[C@H]2CC3=C[C@H](C/C(C)=C/[C@@H](OC(=O)c4ccccc4)[C@@H]21)OC3=O | > 25 µM | > 25 µM
C/C1=C\[C@@H](O)[C@H]2[C@H](CC3=C[C@H](C1)OC3=O)OC(=O)[C@@H]2CSCC(C)C | > 25 µM | > 25 µM
C/C1=C\[C@@H](OC(=O)/C=C/c2ccccc2)[C@H]2[C@H](CC3=C[C@H](C1)OC3=O)OC(=O)[C@@H]2CSC1CCCCC1 | > 25 µM | > 25 µM
C/C1=C\[C@@H](OC(=O)c2ccccc2)[C@H]2[C@H](CC3=C[C@H](C1)OC3=O)OC(=O)[C@@H]2CSc1ccc([N+](=O)[O-])cc1 | > 25 µM | 2.59 µM
COc1ccc(SC[C@H]2C(=O)O[C@H]3CC4=C[C@H](C/C(C)=C/[C@@H](OC(=O)c5ccccc5)[C@@H]32)OC4=O)cc1 | > 25 µM | 9.67 µM
C/C1=C\[C@@H](OC(=O)/C=C/c2ccccc2)[C@H]2[C@H](CC3=C[C@H](C1)OC3=O)OC(=O)[C@@H]2CSCCCCCCCCCCSC[C@H]1C(=O)O[C@H]2CC3=C[C@H](C/C(C)=C/[C@@H](OC(=O)/C=C/c4ccccc4)[C@@H]21)OC3=O | > 25 µM | > 25 µM
C/C1=C\[C@@H](OC(=O)C2CC2)[C@H]2[C@H](CC3=C[C@H](C1)OC3=O)OC(=O)[C@@H]2CSCCCCCCSC[C@H]1C(=O)O[C@H]2CC3=C[C@H](C/C(C)=C/[C@@H](OC(=O)C4CC4)[C@@H]21)OC3=O | > 25 µM | > 25 µM
C/C1=C\[C@@H](OC(=O)/C=C/c2ccccc2)[C@H]2[C@H](CC3=C[C@H](C1)OC3=O)OC(=O)[C@@H]2CSc1ccc(Br)cc1 | > 25 µM | 11.8 µM
C/C1=C\[C@@H](OC(=O)C2CC2)[C@H]2[C@H](CC3=C[C@H](C1)OC3=O)OC(=O)[C@@H]2CSc1cccc(F)c1 | 13.2 µM | 5.4 µM
CCCCCSC[C@H]1C(=O)O[C@H]2CC3=C[C@H](C/C(C)=C/[C@@H](O)[C@@H]21)OC3=O | > 25 µM | > 25 µM
C/C1=C\[C@@H](OC(=O)/C=C/c2ccccc2)[C@H]2[C@H](CC3=C[C@H](C1)OC3=O)OC(=O)[C@@H]2CSCc1ccc(Cl)cc1 | > 25 µM | > 25 µM
C/C1=C\[C@@H](OC(=O)C2CC2)[C@H]2[C@H](CC3=C[C@H](C1)OC3=O)OC(=O)[C@@H]2CSCCCCCCCCSC[C@H]1C(=O)O[C@H]2CC3=C[C@H](C/C(C)=C/[C@@H](OC(=O)C4CC4)[C@@H]21)OC3=O | > 25 µM | > 25 µM
C/C1=C\[C@@H](OC(=O)c2ccccc2)[C@H]2[C@H](CC3=C[C@H](C1)OC3=O)OC(=O)[C@@H]2CSCCCCCCCCCCSC[C@H]1C(=O)O[C@H]2CC3=C[C@H](C/C(C)=C/[C@@H](OC(=O)c4ccccc4)[C@@H]21)OC3=O | > 25 µM | > 25 µM
CCCCCSC[C@H]1C(=O)O[C@H]2CC3=C[C@H](C/C(C)=C/[C@@H](OC(=O)C4CC4)[C@@H]21)OC3=O | > 25 µM | > 25 µM
C/C1=C\[C@@H](OC(=O)C2CC2)[C@H]2[C@H](CC3=C[C@H](C1)OC3=O)OC(=O)[C@@H]2CSCCCCCSC[C@H]1C(=O)O[C@H]2CC3=C[C@H](C/C(C)=C/[C@@H](OC(=O)C4CC4)[C@@H]21)OC3=O | > 25 µM | > 25 µM
C/C1=C\[C@@H](O)[C@H]2[C@H](CC3=C[C@H](C1)OC3=O)OC(=O)[C@@H]2CSCCCCCSC[C@H]1C(=O)O[C@H]2CC3=C[C@H](C/C(C)=C/[C@@H](O)[C@@H]21)OC3=O | > 25 µM | > 25 µM
CCCCCSC[C@H]1C(=O)O[C@H]2CC3=C[C@H](C/C(C)=C/[C@@H](OC(=O)c4ccccc4)[C@@H]21)OC3=O | > 25 µM | > 25 µM
C/C1=C\[C@@H](OC(=O)C2CC2)[C@H]2[C@H](CC3=C[C@H](C1)OC3=O)OC(=O)[C@@H]2CSc1ccc(Cl)cc1 | > 25 µM | 6.03 µM

SMILES | IC50 (NCI-H460) | IC50 (A549)
C/C1=C\[C@@H](OC(=O)c2ccccc2)[C@H]2[C@H](CC3=C[C@H](C1)OC3=O)OC(=O)[C@@H]2CSc1cccc(F)c1 | > 25 µM | 6.17 µM
C/C1=C\[C@@H](OC(=O)C2CC2)[C@H]2[C@H](CC3=C[C@H](C1)OC3=O)OC(=O)[C@@H]2CSc1cccc(Br)c1 | > 25 µM | 5.77 µM
CCCCCSC[C@H]1C(=O)O[C@H]2CC3=C[C@H](C/C(C)=C/[C@@H](OC(=O)/C=C/c4ccccc4)[C@@H]21)OC3=O | > 25 µM | > 25 µM
C/C1=C\[C@@H](OC(=O)c2ccccc2)[C@H]2[C@H](CC3=C[C@H](C1)OC3=O)OC(=O)[C@@H]2CSCc1ccc(Cl)cc1 | > 25 µM | > 25 µM
C/C1=C\[C@@H](O)[C@H]2[C@H](CC3=C[C@H](C1)OC3=O)OC(=O)[C@@H]2CSc1ccc(Br)cc1 | > 25 µM | 15.2 µM
C/C1=C\[C@@H](OC(=O)c2ccccc2)[C@H]2[C@H](CC3=C[C@H](C1)OC3=O)OC(=O)[C@@H]2CSCCOCCOCCSC[C@H]1C(=O)O[C@H]2CC3=C[C@H](C/C(C)=C/[C@@H](OC(=O)c4ccccc4)[C@@H]21)OC3=O | > 25 µM | > 25 µM
C/C1=C\[C@@H](O)[C@H]2[C@H](CC3=C[C@H](C1)OC3=O)OC(=O)[C@@H]2CSc1nc2ccccc2s1 | > 25 µM | > 25 µM
C/C1=C\[C@@H](OC(=O)/C=C/c2ccccc2)[C@H]2[C@H](CC3=C[C@H](C1)OC3=O)OC(=O)[C@@H]2CSc1ccc(SC[C@H]2C(=O)O[C@H]3CC4=C[C@H](C/C(C)=C/[C@@H](OC(=O)/C=C/c5ccccc5)[C@@H]32)OC4=O)cc1 | > 25 µM | > 25 µM
C/C1=C\[C@@H](OC(=O)C2CC2)[C@H]2[C@H](CC3=C[C@H](C1)OC3=O)OC(=O)[C@@H]2CSCc1ccc(Cl)cc1 | > 25 µM | > 25 µM
C/C1=C\[C@@H](O)[C@H]2[C@H](CC3=C[C@H](C1)OC3=O)OC(=O)[C@@H]2CSCCCCCCSC[C@H]1C(=O)O[C@H]2CC3=C[C@H](C/C(C)=C/[C@@H](O)[C@@H]21)OC3=O | > 25 µM | 21.9 µM
C/C1=C\[C@@H](OC(=O)/C=C/c2ccccc2)[C@H]2[C@H](CC3=C[C@H](C1)OC3=O)OC(=O)[C@@H]2CSc1cccc(F)c1 | > 25 µM | 15.6 µM
C/C1=C\[C@@H](O)[C@H]2[C@H](CC3=C[C@H](C1)OC3=O)OC(=O)[C@@H]2CSCCCCCCCCSC[C@H]1C(=O)O[C@H]2CC3=C[C@H](C/C(C)=C/[C@@H](O)[C@@H]21)OC3=O | > 25 µM | > 25 µM
C/C1=C\[C@@H](OC(=O)c2ccccc2)[C@H]2[C@H](CC3=C[C@H](C1)OC3=O)OC(=O)[C@@H]2CSCCCCCSC[C@H]1C(=O)O[C@H]2CC3=C[C@H](C/C(C)=C/[C@@H](OC(=O)c4ccccc4)[C@@H]21)OC3=O | > 25 µM | > 25 µM
C/C1=C\[C@@H](OC(=O)c2ccccc2)[C@H]2[C@H](CC3=C[C@H](C1)OC3=O)OC(=O)[C@@H]2CSCCCCCCCCSC[C@H]1C(=O)O[C@H]2CC3=C[C@H](C/C(C)=C/[C@@H](OC(=O)c4ccccc4)[C@@H]21)OC3=O | > 25 µM | > 25 µM
C/C1=C\[C@@H](OC(=O)/C=C/c2ccccc2)[C@H]2[C@H](CC3=C[C@H](C1)OC3=O)OC(=O)[C@@H]2CSCCCCCSC[C@H]1C(=O)O[C@H]2CC3=C[C@H](C/C(C)=C/[C@@H](OC(=O)/C=C/c4ccccc4)[C@@H]21)OC3=O | > 25 µM | > 25 µM
C/C1=C\[C@@H](O)[C@H]2[C@H](CC3=C[C@H](C1)OC3=O)OC(=O)[C@@H]2CSc1ccc(Cl)cc1 | > 25 µM | > 25 µM
C/C1=C\[C@@H](OC(=O)C2CC2)[C@H]2[C@H](CC3=C[C@H](C1)OC3=O)OC(=O)[C@@H]2CSc1ccc(SC[C@H]2C(=O)O[C@H]3CC4=C[C@H](C/C(C)=C/[C@@H](OC(=O)C5CC5)[C@@H]32)OC4=O)cc1 | > 25 µM | 1.15 µM
C/C1=C\[C@@H](OC(=O)C2CC2)[C@H]2[C@H](CC3=C[C@H](C1)OC3=O)OC(=O)[C@@H]2CSC(=S)NCc1cccnc1 | 15.3 µM | 1.41 µM
C/C1=C\[C@@H](OC(=O)C2CC2)[C@H]2[C@H](CC3=C[C@H](C1)OC3=O)OC(=O)[C@@H]2CSc1ccc([N+](=O)[O-])cc1 | > 25 µM | 5.12 µM
COc1ccc(SC[C@H]2C(=O)O[C@H]3CC4=C[C@H](C/C(C)=C/[C@@H](OC(=O)C5CC5)[C@@H]32)OC4=O)cc1 | > 25 µM | 6.81 µM
C/C1=C\[C@@H](OC(=O)c2ccccc2)[C@H]2[C@H](CC3=C[C@H](C1)OC3=O)OC(=O)[C@@H]2CSc1ccc(Br)cc1 | > 25 µM | 8.85 µM
